# Data reported in patent publication US20150299188A1, “HETEROCYCLIC COMPOUND” (priority 2012, published 2015).
# Test system: FLAP (5-lipoxygenase activating protein)
# Experiment: In vitro binding test: displacement of [3H]-7-chloro-3-(5-((3-fluoropyridin-2-yl)methoxy)-2-methylphenyl)-3,4-dihydroquinazolin-2(1H)-one from Sf9 microsome fractions
# Set-up: species or system human and mouse
# Conditions: Sf9 microsome fractions expressing FLAP; 100% = radioligand binding with 10 μM sodium 3-(3-(tert-butylsulfanyl)-1-(4-chlorobenzyl)-5-isopropyl-1H-indol-2-yl)-2,2-dimethylpropanoate, 0% = DMSO; test compound concentration not given
# Outline: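 Sf9 microsomes expressing human or mouse FLAP (2 μg/mL) preincubated with compound 10 min at room temperature, then 120 nM tritiated quinazolinone ligand added for 60 min; buffer 100 mM Tris-HCl pH 7.5 with NaCl, EDTA, DTT, glycerol, Tween20. Bound ligand filtered and counted by scintillation; 10 μM indole propanoate defines 100% inhibition, DMSO 0%.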
row,inhibitory rate (%),Compound
1,72%,"O=c1[nH]c2cnccc2c(=O)n1-c1cccc(OCc2c(F)cccc2F)c1 [Example 330, 3-(3-((2,6-difluorobenzyl)oxy)phenyl)pyrido[3,4-d]pyrimidine-2,4(1H,3H)-dione]"
2,51%,"Cn1c(=O)n(-c2cccc(OCc3c(F)cccc3F)c2)c(=O)c2ccncc21 [Example 331, 3-(3-((2,6-difluorobenzyl)oxy)phenyl)-1-methylpyrido[3,4-d]pyrimidine-2,4(1H,3H)-dione]"
3,93%,"Cc1ccc(OCc2c(F)cccc2F)cc1-n1c(=O)[nH]c2nc(N3CCOCC3)sc2c1=O [Example 334, 6-(5-((2,6-difluorobenzyl)oxy)-2-methylphenyl)-2-(morpholin-4-yl)[1,3]thiazolo[4,5-d]pyrimidine-5,7(4H,6H)-dione]"
4,103%,"COC(=O)c1ccc2c(=O)n(-c3cc(OCc4c(F)cccc4F)ccc3C)c(=O)[nH]c2c1 [Example 335, methyl 3-(5-((2,6-difluorobenzyl)oxy)-2-methylphenyl)-2,4-dioxo-1,2,3,4-tetrahydroquinazoline-7-carboxylate]"
5,108%,"Cc1ccc(OCc2c(F)cccc2F)cc1-n1c(=O)[nH]c2cc(C(C)(C)O)ccc2c1=O [Example 336, 3-(5-((2,6-difluorobenzyl)oxy)-2-methylphenyl)-7-(2-hydroxypropan-2-yl)quinazoline-2,4(1H,3H)-dione]"
6,104%,"Cc1ccc(OCc2ncccc2F)cc1-n1c(=O)[nH]c2ccccc2c1=O [Example 337, 3-(5-((3-fluoropyridin-2-yl)methoxy)-2-methylphenyl)quinazoline-2,4(1H,3H)-dione]"
7,90%,"Cc1ccc(OCc2ncccc2F)cc1-n1c(=O)[nH]c2cccnc2c1=O [Example 338, 3-(5-((3-fluoropyridin-2-yl)methoxy)-2-methylphenyl)pyrido[3,2-d]pyrimidine-2,4(1H,3H)-dione]"
8,106%,"Cc1ccc(OCc2ncccc2F)cc1-n1c(=O)[nH]c2cnccc2c1=O [Example 339, 3-(5-((3-fluoropyridin-2-yl)methoxy)-2-methylphenyl)pyrido[3,4-d]pyrimidine-2,4(1H,3H)-dione]"
9,102%,"Cc1ccc(OCc2ncccc2F)cc1-n1c(=O)[nH]c2cc([N+](=O)[O-])ccc2c1=O [Example 341, 3-(5-((3-fluoropyridin-2-yl)methoxy)-2-methylphenyl)-7-nitroquinazoline-2,4(1H,3H)-dione]"
10,101%,"Cc1ccc(OCc2ncccc2F)cc1-n1c(=O)[nH]c2cnc(Cl)cc2c1=O [Example 342, 6-chloro-3-(5-((3-fluoropyridin-2-yl)methoxy)-2-methylphenyl)pyrido[3,4-d]pyrimidine-2,4(1H,3H)-dione]"
11,101%,"Cc1ccc(OCc2ncccc2F)cc1-n1c(=O)[nH]c2ncccc2c1=O [Example 343, 3-(5-((3-fluoropyridin-2-yl)methoxy)-2-methylphenyl)pyrido[2,3-d]pyrimidine-2,4(1H,3H)-dione]"
12,114%,"O=c1[nH]c2ccccc2c(=O)n1-c1cc(OCc2ncccc2F)ccc1Cl [Example 344, 3-(2-chloro-5-((3-fluoropyridin-2-yl)methoxy)phenyl)quinazoline-2,4(1H,3H)-dione]"
13,114%,"O=c1[nH]c2ccccc2c(=O)n1-c1cc(OCc2ncccc2F)ccc1F [Example 345, 3-(2-fluoro-5-((3-fluoropyridin-2-yl)methoxy)phenyl)quinazoline-2,4(1H,3H)-dione]"
14,96%,"O=c1[nH]c2ccccc2c(=O)n1-c1cccc(OCc2ncccc2F)c1 [Example 346, 3-(3-((3-fluoropyridin-2-yl)methoxy)phenyl)quinazoline-2,4(1H,3H)-dione]"
15,110%,"Cc1ccc(OCc2ncccc2F)cc1-n1c(=O)[nH]c2c(Cl)cccc2c1=O [Example 347, 8-chloro-3-(5-((3-fluoropyridin-2-yl)methoxy)-2-methylphenyl)quinazoline-2,4(1H,3H)-dione]"
16,101%,"Cc1ccc(OCc2ncccc2F)cc1-n1c(=O)[nH]c2cc(N)ccc2c1=O [Example 348, 7-amino-3-(5-((3-fluoropyridin-2-yl)methoxy)-2-methylphenyl)quinazoline-2,4(1H,3H)-dione]"
17,105%,"Cc1ccc(OCc2ncccc2F)cc1-n1c(=O)[nH]c2cc(OCC3CC3)ccc2c1=O [Example 349, 7-(cyclopropylmethoxy)-3-(5-((3-fluoropyridin-2-yl)methoxy)-2-methylphenyl)quinazoline-2,4(1H,3H)-dione]"
18,101%,"Cc1ccc(OCc2ncccc2F)cc1-n1c(=O)[nH]c2cc(NC(=O)C3CC3)ccc2c1=O [Example 350, N-(3-(5-((3-fluoropyridin-2-yl)methoxy)-2-methylphenyl)-2,4-dioxo-1,2,3,4-tetrahydroquinazolin-7-yl)cyclopropanecarboxamide]"
19,107%,"Cc1ccc(OCc2ncccc2F)cc1-n1c(=O)[nH]c2cc(Cl)ccc2c1=O [Example 351, 7-chloro-3-(5-((3-fluoropyridin-2-yl)methoxy)-2-methylphenyl)quinazoline-2,4(1H,3H)-dione]"
20,107%,"COCCOc1ccc2c(=O)n(-c3cc(OCc4ncccc4F)ccc3C)c(=O)n(CCOC)c2c1 [Example 352, 3-(5-((3-fluoropyridin-2-yl)methoxy)-2-methylphenyl)-7-(2-methoxyethoxy)-1-(2-methoxyethyl)quinazoline-2,4(1H,3H)-dione]"
21,106%,"Cc1ccc(OCc2ncccc2F)cc1-n1c(=O)[nH]c2c(OCC3CC3)cccc2c1=O [Example 353, 8-(cyclopropylmethoxy)-3-(5-((3-fluoropyridin-2-yl)methoxy)-2-methylphenyl)quinazoline-2,4(1H,3H)-dione]"
22,104%,"COCCOc1cccc2c(=O)n(-c3cc(OCc4ncccc4F)ccc3C)c(=O)[nH]c12 [Example 354, 3-(5-((3-fluoropyridin-2-yl)methoxy)-2-methylphenyl)-8-(2-methoxyethoxy)quinazoline-2,4(1H,3H)-dione]"
23,94%,"Cc1ccc(OCc2ncccc2F)cc1-n1c(=O)[nH]c2ccc(Cl)cc2c1=O [Example 355, 6-chloro-3-(5-((3-fluoropyridin-2-yl)methoxy)-2-methylphenyl)quinazoline-2,4(1H,3H)-dione]"
24,102%,"COCCOc1ccc2c(=O)n(-c3cc(OCc4ncccc4F)ccc3C)c(=O)[nH]c2c1 [Example 356, 3-(5-((3-fluoropyridin-2-yl)methoxy)-2-methylphenyl)-7-(2-methoxyethoxy)quinazoline-2,4(1H,3H)-dione]"
25,104%,"Cc1ccc(OCc2ncccc2F)cc1-n1c(=O)[nH]c2cc(C(F)(F)F)ccc2c1=O [Example 357, 3-(5-((3-fluoropyridin-2-yl)methoxy)-2-methylphenyl)-7-(trifluoromethyl)quinazoline-2,4(1H,3H)-dione]"
26,101%,"O=c1[nH]c2cn(CC3CC3)nc2c(=O)n1-c1cc(OCc2ncccc2F)ccc1Br [Example 358, 6-(2-bromo-5-((3-fluoropyridin-2-yl)methoxy)phenyl)-2-(cyclopropylmethyl)-2H-pyrazolo[4,3-d]pyrimidine-5,7(4H,6H)-dione]"
